One data set deals with C. glabrata (ATCC 90030). As to the kind of experiment: Microdilution susceptibility assay (MIC). Format: cell-based, Candida glabrata. To be noted: Nakaseomyces glabratus, ATCC90030. The method, then:
(§1) Compounds 1–10 were screened for their antimicrobial activity against gram-negative bacteria, gram-positive bacteria, and yeasts, listed in Table 1. Bacteria were grown in Mueller-Hinton Broth and yeasts were grown in Sabouraud Dextrose Broth (SDB) during experiments. Overnight cultures were prepared routinely by subculturing of stock culture onto Mueller-Hinton Agar for bacteria and Sabouraud Dextrose Agar for yeasts.
(§2) Microdilution susceptibility assay was used for the determination of antibacterial and anticandidal efficacy of compounds 1–10. Chloramphenicol and ketoconazole were used as positive controls for bacteria and yeasts, respectively. All experiments were designed according to the Clinical Laboratory Standards Institute (CLSI). All chemicals were dissolved in dimethyl sulfoxide (DMSO) to obtain stock solution (10 mg/mL). Two-fold serial dilutions (800, 400, 200...0.78 µg/mL) of the compounds were prepared from stock solutions with dH2O. 100 µL of each solution was transferred to 96-well microtiter plates and 100 µL of 10^6 CFU/mL of bacteria and 2 × 10^3 of CFU/mL yeast were added to related wells. As negative controls, wells including microorganisms without agents and wells including agents without microorganisms were used. The plates were kept at 35 °C for 18–20 h and the growth was determined with resazurin (20 mg/mL). Assays were carried out in triplicate.
On the technique in general: In broth dilution the organism is exposed to a series of concentrations in liquid medium.

Data set [1] concerns A549 human lung adenocarcinoma cell line. Kind of data set: MTT assay. Format: cell-based. To be noted: Homo sapiens, A549. The protocol: (§3) The anticancer effects of compounds 1–10 on A549 human lung adenocarcinoma (ATCC® CCL-185™), HepG2 human hepatocellular carcinoma (ATCC® HB-8065™), and C6 rat glioma (ATCC® CCL107™) cell lines were assessed using 3-(4,5-Dimethylthiazol-2-yl)-2,5-diphenyltetrazolium bromide (MTT) assay, whereas the selectivity of compounds 1–10 was tested using NIH/3T3 mouse embryonic fibroblast cell line (ATCC® CRL-1658™, London, UK). All cell lines were incubated according to the supplier’s recommendations. The cells were seeded as 1 × 10^4 cells into each well of the 96-well plates. MTT assay was performed as previously described. The compounds were tested between the concentrations equal to 1 mM and 0.000316 mM (1.0, 0.316, 0.10, 0.0316, 0.01, 0.00316, 0.001, 0.000316 mM). Stock solutions of compounds were prepared in dimethyl sulfoxide (DMSO) and further dilutions were made with fresh culture medium. The final DMSO concentration was under 1% [34] and cisplatin was used as a positive control. Inhibition % was calculated for each concentration according to the formula below, and IC50 values were determined by plotting a dose–response curve of inhibition % versus compound concentrations tested. All experiments were performed in quadruplicate.Inhibition % = 100 − [(ODtest compound − ODblank/ODsolvent control − ODblank)] × 100(1)
On the technique in general: Tetrazolium assays rely on reduction of a dye to a coloured formazan, in cell work by metabolically active cells.

The test system of data set [2] is HepG2 human hepatocellular carcinoma cell line. Kind of data set: MTT assay. Format: cell-based. To be noted: Homo sapiens, HepG2. The protocol: as §3
A further data set has as its system C6 rat glioma cell line. As to the kind of experiment: MTT assay. Format: cell-based. To be noted: Rattus norvegicus, C6. The method, then: as §3
The subject of data set [3] is NIH/3T3 mouse embryonic fibroblast cell line. Kind of data set: MTT assay. Format: cell-based. To be noted: Mus musculus, NIH3T3, healthy cells for selectivity. The protocol:
as §3

Another data set concerns C. krusei (ATCC 6258). Kind of data set: Microdilution susceptibility assay (MIC). Format: cell-based, Candida krusei. To be noted: Pichia kudriavzevii, ATCC6258. The method, then: as §1, §2
Another data set concerns E. faecalis (ATCC 29212). As to the kind of experiment: Microdilution susceptibility assay (MIC). Format: cell-based. To be noted: Enterococcus faecalis, ATCC29212. The method, then:
as §1, §2

For the next data set, the system named is S. aureus (ATCC 25923). As to the kind of experiment: Microdilution susceptibility assay (MIC). Format: cell-based. To be noted: Staphylococcus aureus, ATCC25923. The method, then: as §1, §2
The subject of a further data set is C. albicans (ATCC 90028). As to the kind of experiment: Microdilution susceptibility assay (MIC). Format: cell-based. To be noted: Candida albicans, ATCC90028. The method, then:
as §1, §2

Another data set has as its system E. faecalis (ATCC 51299). Kind of data set: Microdilution susceptibility assay (MIC). Format: cell-based. To be noted: Enterococcus faecalis, ATCC51299. The method, then:
as §1, §2

The subject of data set [4] is K. pneumoniae (ATCC 700603). Kind of data set: Microdilution susceptibility assay (MIC). Format: cell-based. To be noted: Klebsiella pneumoniae, ATCC700603. The method, then:
as §1, §2

Another data set has as its system E. coli (ATCC 25922). Kind of data set: Microdilution susceptibility assay (MIC). To be noted: Escherichia coli, ATCC25922. Format: cell-based. The protocol: as §1, §2
In data set [5] the test system is C. parapsilosis (ATCC 22019). Kind of data set: Microdilution susceptibility assay (MIC). Format: cell-based, Candida parapsilosis. To be noted: Lodderomyces parapsilosis, ATCC22019. The protocol: as §1, §2
The next data set relates to C. glabrata. As to the kind of experiment: ATP luminescence microbial cell viability assay. To be noted: 24 h treatment, result in words. Format: cell-based, Candida glabrata. The protocol: A model from BioTek Instruments Inc. combined with a BacTiter-Glo^TM Microbial Cell Viability assay (Promega Corp., Madison, WI, USA) was used to provide a sensitive and rapid method for determining the number of viable microbial cells in culture based on quantitation of the ATP present. […] After incubation, cultures were added into the wells (final concentration of bacteria was 5 × 10^5 CFU/mL and 2.5 × 10^6 CFU/mL for yeasts). After adding the BacTiter reagent, incubation time for bacteria and yeasts was 5 min and 15 min, respectively.
The assay generates a “glow-type” luminescent signal, produced by the luciferase reaction. Briefly, after chemicals and strains were incubated for 24 h, 100 µL of the culture was taken from each well and mixed with the same volume of the BacTiter-Glo™ reagent in a white, opaque-walled microtiter plate. Control wells containing medium without cells were prepared to obtain a value for background luminescence. Cells without compound were used as an ATP-positive control. The microplates were further incubated under agitation for 7 min. Bioluminescence was recorded in a multi-detection microplate reader (BioTek Synergy 2 Multi-Mode Microplate Reader, BioTek Instruments, Winooski, VT, USA). In Figure 3, results were given as percentage of untreated control, which is set at 100%. Experiments were performed in triplicate and each sample was measured in four replicates.

In another data set the test system is C. krusei cells. Kind of data set: Flow cytometry live/dead analysis (TO/PI). Format: cell-based, Candida krusei. To be noted: 25 µg/mL, 4 h. The text has this:
In order to investigate the effects of compounds 7 and 9 on the integrity of C. krusei cells, flow cytometry was used with BD cell viability kits. Live cells are impermeable to dyes such as PI since they have intact membranes. TO is a permeant dye and enters live and dead cells to varying degrees. The fluorescent signal from TO in viable cells allows their enumeration, even when debris in the cell preparation contaminates a scatter gate around the cells. Thus, the combination of these two dyes provides a rapid and reliable method for discriminating live and dead eukaryotic cells, including yeasts. All steps were performed according to manufacturers’ recommendations. Briefly, Candida cells were cultured at 35 °C in SDB until late log phase. The cells were centrifuged and washed with phosphate-buffered saline (PBS) at pH = 7.0. Suspensions containing 2 × 10^3 cells/mL were incubated with compounds 7 and 9, and ketoconazole as a reference drug, for 4 h at 35 °C, with shaking (200 r.p.m.). […] Suspensions of treated and untreated cells were incubated for 30 min in the presence of 2 µL of PI and 2 µL of TO, in the dark, at room temperature. The cell suspensions were analysed in a BD Accuri C6 flow cytometer (Becton-Dickinson, Mansfield, MA, USA). The cell scattergram (forward scatter: FS, side scatter: SS), the autofluorescence (without fluorocrome), and the intensity of fluorescence at FL1 (green fluorescence, 525 nm) and FL2 (red fluorescence, 620 nm) were recorded using a logarithmic scale.
For orientation: A flow cytometer gives signals particle by particle.

This is an account of results in publication PMC6149822, “A New Series of Pyrrole-Based Chalcones: Synthesis and Evaluation of Antimicrobial Activity, Cytotoxicity, and Genotoxicity” (Molecules : A Journal of Synthetic Chemistry and Natural …, 2017).

In brackets after ≈: the same amount, converted by molar mass.

A word on the MIC: it is the lowest concentration that inhibits growth of the organism. Read a high MIC as weaker potency. What is called IC50 is the concentration needed to halve the response being measured. Lower therefore signals greater potency in that assay. In general, melting point refers to the temperature, or range, at which the solid turns liquid.

For `Cn1cccc1C(=O)C=Cc1ccc(-c2ccccc2Cl)o1` [Compound 5, 1-(1-Methyl-1H-pyrrol-2-yl)-3-(5-(2-chlorophenyl)furan-2-yl)prop-2-en-1-one], the melting point lay within 95 to 96 °C. This compound yielded an MIC with C. glabrata (ATCC 90030) of 200 µg/mL (≈ 642 µM). In [1], this compound yielded an IC50 of 311 µg/mL (≈ 998 µM). Besides, the IC50 in [2] was determined as 31 µg/mL (≈ 99.4 µM). For the same compound, the IC50 in the data set with C6 rat glioma cell line is above 311 µg/mL. In data set [3], half-maximal inhibition (IC50) was put at 45 µg/mL (≈ 144 µM). In the data set with C. krusei (ATCC 6258), inhibition of growth (MIC) required 200 µg/mL (≈ 642 µM). Also, in the data set on E. faecalis (ATCC 29212), the MIC stood at 200 µg/mL (≈ 642 µM). In the data set with S. aureus (ATCC 25923), 400 µg/mL (≈ 1280 µM) was the least that counted as inhibitory (MIC). In addition, the MIC against C. albicans (ATCC 90028) came out at 200 µg/mL (≈ 642 µM). 200 µg/mL (≈ 642 µM) was the least that counted as inhibitory in the data set with E. faecalis (ATCC 51299) (MIC). Besides, the MIC in data set [4] stood at 200 µg/mL (≈ 642 µM). The same compound had an MIC against E. coli (ATCC 25922) of 400 µg/mL (≈ 1280 µM). In data set [5], this compound yielded an MIC of 100 µg/mL (≈ 321 µM).
Regarding `Cn1cccc1C(=O)C=Cc1ccc(-c2cccc(Cl)c2)o1` [Compound 6, 1-(1-Methyl-1H-pyrrol-2-yl)-3-(5-(3-chlorophenyl)furan-2-yl)prop-2-en-1-one], the melting point is 121 to 122 °C. The compound also registered an MIC against C. glabrata (ATCC 90030) of 200 µg/mL (≈ 642 µM). Further, the IC50 in [1] was 98 µg/mL (≈ 314 µM). In [2], this compound displayed an IC50 of 98 µg/mL (≈ 314 µM). The same compound gave an IC50 in the data set on C6 rat glioma cell line of 103 µg/mL (≈ 330 µM). Besides, in [3], the IC50 was 38 µg/mL (≈ 122 µM). Moreover, the MIC in the data set with C. krusei (ATCC 6258) worked out at 200 µg/mL (≈ 642 µM). In the data set on E. faecalis (ATCC 29212), this compound gave an MIC of 200 µg/mL (≈ 642 µM). The compound further registered an MIC against S. aureus (ATCC 25923) of 200 µg/mL (≈ 642 µM). The same compound showed an MIC in the data set on C. albicans (ATCC 90028) of 200 µg/mL (≈ 642 µM). The compound also had an MIC against E. faecalis (ATCC 51299) of 200 µg/mL (≈ 642 µM). In data set [4], this compound had an MIC of 200 µg/mL (≈ 642 µM). Also, the MIC with E. coli (ATCC 25922) was found to be 100 µg/mL (≈ 321 µM). Also, in [5], the MIC was found to be 100 µg/mL (≈ 321 µM).
With `Cn1cccc1C(=O)C=Cc1ccc(-c2ccc(Cl)cc2Cl)o1` [Compound 8, 1-(1-Methyl-1H-pyrrol-2-yl)-3-(5-(2,4-dichlorophenyl)furan-2-yl)prop-2-en-1-one], the melting point is 98 to 99 °C. Also, the MIC in the data set on C. glabrata (ATCC 90030) is 100 µg/mL (≈ 289 µM). In data set [1], this compound had an IC50 of 225 µg/mL (≈ 650 µM). In data set [2], half-maximal inhibition (IC50) required 106 µg/mL (≈ 306 µM). For the same compound, the IC50 with C6 rat glioma cell line came to 90 µg/mL (≈ 260 µM). The IC50 in [3] is 277 µg/mL (≈ 800 µM). For the same compound, in the data set with C. krusei (ATCC 6258), it took 50 µg/mL (≈ 144 µM) to inhibit growth (MIC). For the same compound, the “antifungal activity in ATP bioluminescence assay” value with C. glabrata is recorded as “antifungal activity close to ketoconazole”. Further, the MIC with E. faecalis (ATCC 29212) was 200 µg/mL (≈ 578 µM). The MIC with S. aureus (ATCC 25923) stood at 400 µg/mL (≈ 1160 µM). The MIC in the data set with C. albicans (ATCC 90028) was determined as 200 µg/mL (≈ 578 µM). In the data set with E. faecalis (ATCC 51299), this compound yielded an MIC of 400 µg/mL (≈ 1160 µM). The MIC in data set [4] amounted to 200 µg/mL (≈ 578 µM). The same compound yielded an MIC with E. coli (ATCC 25922) of 100 µg/mL (≈ 289 µM). 100 µg/mL (≈ 289 µM) was the least that counted as inhibitory in data set [5] (MIC).
Take `CC(=O)N1CCN(c2ccc(OCC3COC(Cn4ccnc4)(c4ccc(Cl)cc4Cl)O3)cc2)CC1` (stereo not shown) [Ketoconazole, reference compound]: the “Dead Cell %” value in the data set on C. krusei cells is 18.4%. In the data set on C. krusei cells, the “Live Cell %” value is listed as 81.2%. The MIC in the data set on C. glabrata (ATCC 90030) came to 100 µg/mL (≈ 188 µM); with C. krusei (ATCC 6258), 50 µg/mL (≈ 94.1 µM); against C. albicans (ATCC 90028), 50 µg/mL (≈ 94.1 µM); in [5], 50 µg/mL (≈ 94.1 µM).
